Values after ≈ are worked out from the molar mass of the structure shown.
Columns and labels:
E. coli R477-100 = test: MIC, double-microdilution, E. coli R477-100; format: cell-based, Escherichia coli; conditions: Table 4
E. coli AG100B = test: MIC, double-microdilution, E. coli AG100B; format: cell-based, Escherichia coli; conditions: for MIC E. coli AG100B: Table 4, kanamycin resistant, APH(3′)-I
Excerpt: AG100B and AG100A are two kanamycin resistant Escherichia coli strains expressing APH(3′)-I aminoglycoside resistance enzyme.

E. coli AG100A = test: MIC, double-microdilution, E. coli AG100A; format: cell-based, Escherichia coli; conditions: for MIC E. coli AG100A: Table 4, kanamycin resistant, APH(3′)-I
B. subtilis ATCC 6633 = test: MIC, double-microdilution, B. subtilis ATCC 6633; format: cell-based; conditions: Table 4
E. coli XL1 blue/pSF815 = test: microbe, parasite or virus in culture; format: cell-based; conditions: for MIC ratio XL1 blue/pSF815 to XL1 blue: MIC resistant strain divided by MIC background strain; for MIC XL1 blue/pSF815: expressed enzyme AAC(6′)-APH(2″)
Experimental: (§1) For this purpose, exemplary conjugates, according to some embodiments of the present invention, were tested against five isogenic E. coli strains. E. coli (pSF815) and E. coli (pET9d) are laboratory resistant strains derived by transformation of E. coli XL1 blue (background strain) with the pSF815 and pET9d plasmids, respectively. […] The last two isogenic strains used were E. coli BL21 (background strain) and E. coli (pETSACG1). […] These three enzymes are among the most prevalent modes of resistance found in aminoglycosides resistance strains.
(§2) The MIC ratios were calculated by dividing the MIC value against resistant strain to that against the respective background strain.

E. coli XL1 blue = test: microbe, parasite or virus in culture; format: cell-based; conditions: background strain
Experimental: as §1, §2

E. coli BL21 = test: microbe, parasite or virus in culture; format: cell-based; conditions: background strain
Experimental: as §1, §2

E. coli BL21/pETSACG1 = test: microbe, parasite or virus in culture; format: cell-based; conditions: for MIC ratio BL21/pETSACG1 to BL21: MIC resistant strain divided by MIC background strain; for MIC BL21/pETSACG1: expressed enzyme APH(3′)-IIIa
Experimental: as §1, §2

E. coli XL1 blue/pET9d = test: microbe, parasite or virus in culture; format: cell-based; conditions: for MIC ratio XL1 blue/pET9d to XL1 blue: MIC resistant strain divided by MIC background strain; for MIC XL1 blue/pET9d: expressed enzyme APH(3′)-Ia
Experimental: as §1, §2

E. coli ATCC 25922 = test: MIC, double-microdilution, E. coli ATCC 25922; format: cell-based, Escherichia coli; conditions: Table 4
MRSA ATCC 43300 = test: microbe, parasite or virus in culture; format: cell-based, S. aureus; conditions: Table 4
E. coli DNA gyrase = E. coli DNA gyrase (Escherichia coli, UniProt P0AES4+P0AES6)
[1] = test system: bacterial protein synthesis; test: In vitro coupled transcription/translation assay, E. coli S30 extract; format: biochemical; conditions: luciferase readout
Experimental: Protein translation inhibition by the different compounds was quantified in a coupled transcription/translation assay by using E. coli S30 extracts for circular DNA with the pBEST/uc plasmid (Promega), according to the manufacturer's protocol.
Translation reactions (25 μl) that contained variable concentrations of the tested compound were incubated at 37° C. for 60 minutes, cooled on ice for 5 minutes, and diluted with a dilution reagent (tris-phosphate buffer (25 mM, pH 7.8), DTT (2 mM), 1,2-diaminocyclohexanetetraacetate (2 mM), glycerol (10%), Triton X-100 (1%) and BSA (1 mg/ml)) into 96-well plates. The luminescence was measured immediately after the addition of the Luciferase Assay Reagent (50 μl; Promega), and the light emission was recorded with a Victor3™ Plate Reader (Perkin-Elmer). The concentration of half-maximal inhibition (IC50) was obtained from fitting concentration-response curves to the data of at least two independent experiments by using Grafit 5 software (Leatherbarrow, R. J. Erithacus Software Ltd: Horley, U.K., 2001).
(§3) Relaxation assays were conducted with E. coli TopoIV.

E. coli TopoIV = biological target: T1, E. coli TopoIV (Escherichia coli, UniProt P0AFI2+P20083); test: TopoIV relaxation assay; format: biochemical
T1 construct: purchased Inspiralis Ltd
Experimental: DNA relaxation activity was assayed with supercoiled pBR322 DNA as a substrate (Inspiralis Ltd) according to the manufacturer's protocol. The standard reaction mixture (20 μl) contained 40 mM HEPES-KOH pH 7.6, 100 mM potassium glutamate, 10 mM Mg(OAc)2, 10 mM dithiothreitol, 1 mM ATP, 50 μg/ml albumin, 5 ng/μl […] pBR322, and TopoIV protein. The reaction mixture was incubated at 37° C. for 30 minutes, and then was terminated by addition of 2 μl 0.5 M EDTA, 3.5 μl loading dye and 20 μl chloroform/isoamyl alcohol (24:1) mixture. […] One unit of relaxation activity was defined as the amount of TopoIV required to relax 0.1 μg of plasmid in 30 minutes.
as §3

T1 sequence (P0AFI2 whole entry): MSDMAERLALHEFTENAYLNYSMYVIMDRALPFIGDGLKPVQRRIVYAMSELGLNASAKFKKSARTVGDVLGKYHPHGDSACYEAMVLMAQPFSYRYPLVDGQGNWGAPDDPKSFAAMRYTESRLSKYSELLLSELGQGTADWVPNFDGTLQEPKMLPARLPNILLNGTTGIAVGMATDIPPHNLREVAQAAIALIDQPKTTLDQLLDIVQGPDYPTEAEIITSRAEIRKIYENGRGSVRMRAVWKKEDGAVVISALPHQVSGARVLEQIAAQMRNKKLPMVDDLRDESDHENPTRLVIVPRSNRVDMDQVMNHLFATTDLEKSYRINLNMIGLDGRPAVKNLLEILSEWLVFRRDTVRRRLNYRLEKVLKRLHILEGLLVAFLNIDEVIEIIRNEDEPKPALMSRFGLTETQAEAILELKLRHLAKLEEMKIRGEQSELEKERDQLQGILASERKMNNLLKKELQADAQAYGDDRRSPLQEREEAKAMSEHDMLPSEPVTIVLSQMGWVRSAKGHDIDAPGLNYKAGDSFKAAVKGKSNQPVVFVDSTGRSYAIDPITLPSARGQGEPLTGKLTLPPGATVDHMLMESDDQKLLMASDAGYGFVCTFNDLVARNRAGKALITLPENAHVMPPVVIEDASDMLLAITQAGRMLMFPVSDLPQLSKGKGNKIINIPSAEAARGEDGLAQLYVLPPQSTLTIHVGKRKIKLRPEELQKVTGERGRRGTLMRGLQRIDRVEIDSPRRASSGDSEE
T1 sequence (P20083 whole entry): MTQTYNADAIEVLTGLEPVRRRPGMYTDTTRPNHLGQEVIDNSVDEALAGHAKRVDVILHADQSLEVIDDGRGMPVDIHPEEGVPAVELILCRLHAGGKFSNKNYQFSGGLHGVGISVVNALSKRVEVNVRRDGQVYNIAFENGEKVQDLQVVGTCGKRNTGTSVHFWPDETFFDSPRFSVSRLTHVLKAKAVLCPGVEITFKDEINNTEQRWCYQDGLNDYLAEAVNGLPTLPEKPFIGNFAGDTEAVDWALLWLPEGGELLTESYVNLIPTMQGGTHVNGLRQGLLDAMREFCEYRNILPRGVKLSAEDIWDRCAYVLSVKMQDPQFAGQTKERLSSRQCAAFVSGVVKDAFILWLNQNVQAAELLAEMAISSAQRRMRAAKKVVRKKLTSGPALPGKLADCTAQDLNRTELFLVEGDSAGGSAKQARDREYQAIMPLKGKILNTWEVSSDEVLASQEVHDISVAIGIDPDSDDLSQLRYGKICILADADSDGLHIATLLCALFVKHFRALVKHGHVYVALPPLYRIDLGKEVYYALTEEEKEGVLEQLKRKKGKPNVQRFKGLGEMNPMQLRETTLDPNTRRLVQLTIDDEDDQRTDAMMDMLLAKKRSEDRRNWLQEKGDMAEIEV
E. coli DNA gyrase, sequence (P0AES4 whole entry, one chain of several): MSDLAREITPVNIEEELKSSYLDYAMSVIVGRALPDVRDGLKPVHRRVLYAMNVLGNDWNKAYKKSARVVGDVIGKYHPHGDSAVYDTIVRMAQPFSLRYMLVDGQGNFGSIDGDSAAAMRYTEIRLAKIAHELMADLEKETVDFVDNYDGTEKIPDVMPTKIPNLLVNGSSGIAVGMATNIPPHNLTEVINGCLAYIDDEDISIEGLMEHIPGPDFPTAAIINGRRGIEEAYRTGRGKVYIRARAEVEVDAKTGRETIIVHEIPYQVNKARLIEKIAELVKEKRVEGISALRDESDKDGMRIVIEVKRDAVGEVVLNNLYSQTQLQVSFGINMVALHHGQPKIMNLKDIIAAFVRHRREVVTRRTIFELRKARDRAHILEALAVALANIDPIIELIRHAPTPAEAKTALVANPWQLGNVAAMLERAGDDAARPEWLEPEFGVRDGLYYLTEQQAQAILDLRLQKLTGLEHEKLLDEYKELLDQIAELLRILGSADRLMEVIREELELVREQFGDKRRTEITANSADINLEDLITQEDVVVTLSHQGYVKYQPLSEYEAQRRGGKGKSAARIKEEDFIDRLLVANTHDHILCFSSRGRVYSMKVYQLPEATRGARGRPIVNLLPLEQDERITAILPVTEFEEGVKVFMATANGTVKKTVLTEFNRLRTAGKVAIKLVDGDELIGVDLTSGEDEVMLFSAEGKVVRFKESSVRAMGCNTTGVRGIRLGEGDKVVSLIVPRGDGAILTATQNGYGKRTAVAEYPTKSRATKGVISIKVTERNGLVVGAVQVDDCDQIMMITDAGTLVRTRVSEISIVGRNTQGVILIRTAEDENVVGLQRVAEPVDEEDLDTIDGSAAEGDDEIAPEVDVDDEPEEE

SMILES: NCC1OC(OC2C(C(=O)NCc3cn(Cc4cccc(CN5CCN(c6cc7c(cc6F)c(=O)c(C(=O)O)cn7C6CC6)CC5)c4)nn3)OC(OC3C(O)C(N)CC(N)C3OC3OC(CN)C(O)C(O)C3N)C2O)C(N)C(O)C1O (stereo not shown) [Compound 1o, N-((1-(3-((ciprofloxacin)methyl)benzyl)-1H-1,2,3-triazol-4-yl)-5″-methyl)neomycin carboxamide]
- MIC E. coli R477-100 (E. coli R477-100): 6 mg/L (≈ 5.25 µM)
- MIC E. coli AG100B (E. coli AG100B): 12 mg/L (≈ 10.5 µM)
- MIC E. coli AG100A (E. coli AG100A): 0.75 mg/L (≈ 0.657 µM)
- MIC B. subtilis ATCC 6633 (B. subtilis ATCC 6633): 3 mg/L (≈ 2.63 µM)
- MIC ratio XL1 blue/pSF815 to XL1 blue (E. coli XL1 blue/pSF815): 4
- MIC XL1 blue/pSF815 (E. coli XL1 blue/pSF815): 24 μg/ml
- MIC XL1 blue (E. coli XL1 blue): 6 mg/L (≈ 5.25 µM)
- MIC BL21 (E. coli BL21): 0.4 mg/L (≈ 0.35 µM)
- MIC ratio BL21/pETSACG1 to BL21 (E. coli BL21/pETSACG1): 1
- MIC BL21/pETSACG1 (E. coli BL21/pETSACG1): 0.4 μg/ml
- MIC ratio XL1 blue/pET9d to XL1 blue (E. coli XL1 blue/pET9d): 1
- MIC XL1 blue/pET9d (E. coli XL1 blue/pET9d): 6 μg/ml
- MIC E. coli ATCC 25922 (E. coli ATCC 25922): 6 mg/L (≈ 5.25 µM)
- MIC MRSA ATCC 43300 (MRSA ATCC 43300): 6 mg/L (≈ 5.25 µM)

SMILES: NCC1OC(OC2C(C(=O)NCc3cn(Cc4ccc(CN5CCN(c6cc7c(cc6F)c(=O)c(C(=O)O)cn7C6CC6)CC5)cc4)nn3)OC(OC3C(O)C(N)CC(N)C3OC3OC(CN)C(O)C(O)C3N)C2O)C(N)C(O)C1O (stereo not shown) [Compound 1p, N-((1-(4-((ciprofloxacin)methyl)benzyl)-1H-1,2,3-triazol-4-yl)-5″-methyl)neomycin carboxamide]
- MIC E. coli R477-100 (E. coli R477-100): 6 mg/L (≈ 5.25 µM)
- MIC E. coli AG100B (E. coli AG100B): 12 mg/L (≈ 10.5 µM)
- MIC E. coli AG100A (E. coli AG100A): 1.5 mg/L (≈ 1.31 µM)
- MIC B. subtilis ATCC 6633 (B. subtilis ATCC 6633): 3 mg/L (≈ 2.63 µM)
- MIC ratio XL1 blue/pSF815 to XL1 blue (E. coli XL1 blue/pSF815): 1
- MIC XL1 blue/pSF815 (E. coli XL1 blue/pSF815): 6 μg/ml
- MIC XL1 blue (E. coli XL1 blue): 6 mg/L (≈ 5.25 µM)
- MIC BL21 (E. coli BL21): 0.4 mg/L (≈ 0.35 µM)
- MIC ratio BL21/pETSACG1 to BL21 (E. coli BL21/pETSACG1): 1
- MIC BL21/pETSACG1 (E. coli BL21/pETSACG1): 0.4 μg/ml
- MIC ratio XL1 blue/pET9d to XL1 blue (E. coli XL1 blue/pET9d): 1
- MIC XL1 blue/pET9d (E. coli XL1 blue/pET9d): 6 μg/ml
- MIC E. coli ATCC 25922 (E. coli ATCC 25922): 6 mg/L (≈ 5.25 µM)
- MIC MRSA ATCC 43300 (MRSA ATCC 43300): 3 mg/L (≈ 2.63 µM)

SMILES: NCC1OC(OC2C(COCc3cn(CCN4CCN(c5cc6c(cc5F)c(=O)c(C(=O)O)cn6C5CC5)CC4)nn3)OC(OC3C(O)C(N)CC(N)C3OC3OC(CN)C(O)C(O)C3N)C2O)C(N)C(O)C1O (stereo not shown) [Compound 1q, 4-((5″-neomycinmethoxy)methyl)-1-(2-(ciprofloxacin)ethyl)-1H-1,2,3-triazole]
- MIC E. coli R477-100 (E. coli R477-100): 3 mg/L (≈ 2.85 µM)
- MIC E. coli AG100B (E. coli AG100B): 12 mg/L (≈ 11.4 µM)
- fold more potent than NeoB against E. coli AG100B (E. coli AG100B; from MIC): 32 fold
- IC50 fold superior than that of Cipro in DNA gyrase assay (E. coli DNA gyrase; general statements name DNA gyrase and TopoIV together): 32 fold
- IC50 (E. coli DNA gyrase; read-out: DNA gyrase IC50, supercoiling assay, relaxed pBR322): 0.041 ± 0.009 µM
- MIC E. coli AG100A (E. coli AG100A): 0.38 mg/L (≈ 0.361 µM)
- fold more potent than NeoB against E. coli AG100A (E. coli AG100A; from MIC): 253 fold
- IC50 [1]: 18.1 ± 4.9 µM
- MIC B. subtilis ATCC 6633 (B. subtilis ATCC 6633): 0.75 mg/L (≈ 0.712 µM)
- IC50 fold superior than Cipro in TopoIV assay (E. coli TopoIV): 1.4 fold
- IC50 (E. coli TopoIV; relaxation assay, supercoiled pBR322): 7.9 ± 0.25 µM
- MIC ratio XL1 blue/pSF815 to XL1 blue (E. coli XL1 blue/pSF815): 4
- MIC XL1 blue/pSF815 (E. coli XL1 blue/pSF815): 12 μg/ml
- MIC XL1 blue (E. coli XL1 blue): 3 mg/L (≈ 2.85 µM)
- MIC BL21 (E. coli BL21): 0.2 mg/L (≈ 0.19 µM)
- MIC ratio BL21/pETSACG1 to BL21 (E. coli BL21/pETSACG1): 1
- MIC BL21/pETSACG1 (E. coli BL21/pETSACG1): 0.2 μg/ml
- MIC ratio XL1 blue/pET9d to XL1 blue (E. coli XL1 blue/pET9d): 4
- MIC XL1 blue/pET9d (E. coli XL1 blue/pET9d): 12 μg/ml
- MIC E. coli ATCC 25922 (E. coli ATCC 25922): 3 mg/L (≈ 2.85 µM)
- MIC MRSA ATCC 43300 (MRSA ATCC 43300): 6 mg/L (≈ 5.7 µM)
